Where two headings read alike, the source gives them in different places.

Assay [1] has as its system ECS-Amnesie. In words: inhibitory (passive) avoidance test (step-through test), reversal of ECS-induced amnesia. The assay is classed as in vivo, Mäusen. Particulars: po. An excerpt: (§1) Die Verbindungen der Formel I besitzen wertvolle pharmakologische Eigenschaften, insbesondere nootrope. Die nootrope Wirkung der erfindungsgemäßen Verbindungen wurde an Mäusen, die ein Körpergewicht von 20-25 g besaßen, im inhibitory (passive) avoidance test (step-through-test) geprüft. Eine modifizierte Form der von J. Kopp. Z. Bodanecky und M.E. Jarvik beschriebenen Test-Methode wurde von J. Bures, 0. Buresova und J. Huston im "Techniques and Basic Experiments for the Study of Brain and Benavior", Elsevier Scientific Publishers, Amsterdam 1983, beschrieben.
(§2) Entsprechend diesen Literaturangaben wird eine Substanz dann als nootrop wirksam bezeichnet, wenn sie bei den Versuchstieren die mittels eines electroconvulsiven Schocks erzeugte Amnesie (ECS-Amnesie) bzw. mittels Scopolamin-Injektion erzeugte Amnesie aufzuheben vermag.
(§3) Die Versuche wurden nach modifizierten Test-Methoden mit den erfindungsgemäßen Verbindungen durchgeführt. Als Vergleichsverbindung diente das bekannte Nootropikum 2-0xo-1-pyrrolidinylessigsäurea- mid (Piracetam). Die deutliche Überlegenheit der erfindungsgemäßen Verbindungen über die Vergleichssubstanz zeigte sich darin, daß der amnestische Effekt bereits mit einer MED (minimal effective dose) von 1-10 mg/kg p.o. aufzuheben ist. Die Vergleichssubstanz hat eine MED von ca. 500-1000 mg/kg p.o.

Assay [2] relates to Scopolamin-Amnesie. In words: inhibitory (passive) avoidance test (step-through test), reversal of scopolamine-induced amnesia. Format: in vivo, Mäusen. Particulars: Mus musculus, po, read-out: Inhibitory avoidance MED mg/kg p.o. Scopolamin-Amnesie.
Excerpt: as §1, §2, §3

Where [3] appears, read: Mus musculus, mice 20-25 g, amnesia induced by electroconvulsive shock, read-out: Inhibitory avoidance MED mg/kg p.o. ECS-Amnesie.
[4] abbreviates: Mus musculus, read-out: Inhibitory avoidance MED mg/kg p.o. ECS-Amnesie.
Where [5] appears, read: mice 20-25 g, amnesia induced by scopolamine injection.

In the case of `Cc1ccc(CN2C[C@@H](O)[C@@H](O)C2=O)cc1` [Beispiel 33], the minimal effective dose in assay [1] (setting [3]) is 3 mg/kg.

With `CC(C)N(CCNC(=O)CN1C[C@@H](O)[C@@H](O)C1=O)C(C)C` [Beispiel 28, N-[2-(Diisopropylamino)ethyl]-2-[(3R,4R)-3,4-dihydroxypyrrolidin-2-on-1-yl]acetamid], in assay [1] (setting [4]), the minimal effective dose was determined as 10 mg/kg.

Regarding `O=C1[C@H](O)[C@H](O)CN1Cc1ccccc1` [Beispiel 29, 1-Benzyl-(3R,4R)-3.4-dihydroxy-pyrrolidin2-on], the minimal effective dose in assay [1] (setting [3]) came to 3 mg/kg; in assay [2] (setting [5]), 1 mg/kg.

For `NC(=O)CN1CCCC1=O` [Piracetam, 2-0xo-1-pyrrolidinylessigsäurea-mid, reference compound], the minimal effective dose in assay [1] (setting [4]) was 1000 mg/kg; in assay [1] (read-out: MED (minimal effective dose)), 500 to 1000 mg/kg; in assay [2] it was 500 mg/kg.

Regarding `COc1cccc(CN2C[C@@H](O)[C@@H](O)C2=O)c1` [Beispiel 34], the minimal effective dose in assay [1] (setting [3]) came out at 3 mg/kg; in assay [2] (setting [5]) it was 1 mg/kg.

In the case of `Nc1ccc(CN2C[C@@H](O)[C@@H](O)C2=O)cc1` [Beispiel 36, 1-(4-Aminobenzyl)-(3R,4R)-3,4-dihydroxypyrrolidin-2-on], the minimal effective dose in assay [1] (setting [3]) turned out to be 3 mg/kg.

The values above are taken from EP0338435A1, “3,4-Dihydroxypyrrolidin-2-one derivatives, process for their preparation, agents containing them and their use as well as the intermediates resulting from the preparation” (HOECHST AKTIENGESELLSCHAFT, priority 1988, dated 1989).
